The values that follow come from PMC12396409, “Screening and hit evaluation of a microbial metabolite library against the pathogenic Plasmodium falciparum and Toxoplasma gondii parasites” (International Journal for Parasitology: Drugs and Drug …, 2025).

Where two headings read alike, the source gives them in different places. Where only a bound is given, the exact number is not on record here.

The subject of experiment [1] is P. falciparum 3D7 parasites. Briefly: P. falciparum growth inhibition assay, 1-cycle (72 h treatment), SYBR DNA staining (library screen at 2 μg/mL and dose-response). It is filed as cell-based, Plasmodium falciparum. As to conditions: for activity at 2 µg/mL: Plasmodium falciparum, 3D7; P. falciparum, 2 μg/mL, 72 h; read-out: 1) Growth (%) at 72 h.
For experiment [2], the system named is P. falciparum 3D7 parasites. Briefly: P. falciparum growth inhibition assay, 2-cycle (120 h treatment), delayed-death screen and dose-response. It is filed as cell-based, Plasmodium falciparum. As to conditions: for 2) Growth (%) at 120 h / 3) Fold change (72 h/120 h): P. falciparum, 2 μg/mL; for 3) Fold change (72 h/120 h): growth at 72 h / growth at 120 h; for activity at 2 µg/mL: Plasmodium falciparum, 3D7; P. falciparum, 2 μg/mL, 120 h; read-out: 2) Growth (%) at 120 h.

Setting [3] is: 3D7, 72 h treatment, mean ± S.D., n ≥ 3, read-out: IC50 (μM), P. falciparum.
Setting [4] is: Plasmodium falciparum, 3D7, 72 h treatment, mean ± S.D., n ≥ 3, read-out: IC50 (μM), P. falciparum.
The mark [5] stands for this setting: P. falciparum, 72 h, 2 μg/mL, mean of both replicates, growth (% of control).
Where [6] appears, read: 72 h treatment, read-out: IC50, P. falciparum.

Take 4-O-methylammocidin: in experiment [1] (P. falciparum, 2 μg/mL, 72 h), the “1) Growth (%) at 72 h” value turned out to be 43.16%. Also, in experiment [2], the “2) Growth (%) at 120 h” value is 13.10% and the “3) Fold change (72 h/120 h)” value was determined as 3.3.
Regarding `CCO[C@@H]1[C@@H](OC)[C@H](C)O[C@@H](O[C@@H]2C[C@H]3CC[C@@H]4[C@@H](C=C5C(=O)[C@H](C)[C@@H](O)CCC[C@H](CC)OC(=O)C[C@H]54)[C@@H]3C2)[C@@H]1OC` [3-Ethoxy-5,6-dihydrospinosyn J pseudoaglycone], in experiment [1] (setting [3]), the IC50 was more than 1 µM. Moreover, in experiment [1] (library screen at 2 μg/mL, 3D7, 72 h, DD from the 120 h timepoint), the “Screen (P. falciparum)” value was “I”.
For the compound `CCO[C@@H]1[C@@H](OC)[C@H](C)O[C@@H](O[C@@H]2C[C@H]3CC[C@@H]4[C@@H](C=C5C(=O)[C@H](C)[C@@H](O[C@H]6CC[C@H](N(C)C)[C@@H](C)O6)CCC[C@H](CC)OC(=O)C[C@H]54)[C@@H]3C2)[C@@H]1OC` [3-Ethoxy-5,6-dihydrospinosyn J], in experiment [1] (setting [3]), the IC50 worked out at 0.42 ± 0.22 µM.
In the case of `CCO[C@@H]1[C@@H](OC)[C@H](C)O[C@@H](O[C@H]2C[C@H]3[C@@H]4C=C5C(=O)[C@H](C)[C@@H](O)CCC[C@H](CC)OC(=O)C[C@H]5[C@@H]4C=C(C)[C@@H]3C2)[C@@H]1OC` [3-Ethoxyspinosyn L pseudoaglycone], the IC50 in experiment [1] (setting [3]) was more than 1 µM.
Take `CCO[C@@H]1[C@@H](OC)[C@H](C)O[C@@H](O[C@H]2C[C@H]3[C@@H]4C=C5C(=O)[C@H](C)[C@@H](O[C@H]6CC[C@H](N(C)C)[C@@H](C)O6)CCC[C@H](CC)OC(=O)C[C@H]5[C@@H]4C=C(C)[C@@H]3C2)[C@@H]1OC` [3-Ethoxyspinosyn L]: in experiment [1] (setting [3]), the 50% inhibitory concentration (IC50) worked out at 0.57 ± 0.28 µM.
Take `CC[C@H](C)[C@H]1OC(=O)[C@H](Cc2ccccc2)N(C)C(=O)[C@@H](C(C)C)OC(=O)[C@H](Cc2ccccc2)N(C)C(=O)[C@@H](C(C)C)OC(=O)[C@H](Cc2ccccc2)N(C)C1=O` [Beauvericin A]: the IC50 in experiment [1] (Plasmodium falciparum, 3D7, 72 h treatment, read-out: IC50, P. falciparum) turned out to be 0.33 µM; in experiment [1] (setting [4]), 0.326 ± 0.095 µM.
Regarding `CCCC[C@H](C)[C@@H]1CC(=O)N[C@@H](Cc2ccccc2)C(=O)N[C@@H](C)C(=O)N[C@H]([C@@H](C)CC)C(=O)O1` [Beauveriolide III], the IC50 in experiment [1] (setting [4]) was more than 1 µM.
For the compound `CC(=O)O[C@H]1C[C@@]2(C)[C@@H](CC[C@H]3[C@@]4(C)C=CC(=O)[C@@H](C)[C@@H]4[C@H](OC(C)=O)C(=O)[C@@]32C)/C1=C(\CCC=C(C)C)C(=O)O` [Helvolic acid], the activity at 2 µg/mL in experiment [1] was 56.7%. Also, in experiment [2], the “3) Fold change (72 h/120 h)” value is 7.0 and the activity at 2 µg/mL is 8.14%.
`CN=C1NC(=O)[C@H]([C@H](C)c2c[nH]c3ccccc23)O1` [Indolmycin]: in experiment [1] (P. falciparum, 2 μg/mL, 72 h), the “1) Growth (%) at 72 h” value is on record as 44.88%. Besides, in experiment [2], the “2) Growth (%) at 120 h” value amounted to 17.39% and the “3) Fold change (72 h/120 h)” value is on record as 2.6.
`COC(=O)C1=CO[C@@H](C)[C@@H]2CN3CCc4c([nH]c5cc(OC)c(OC)cc45)[C@@H]3C[C@H]12` [Isoreserpiline]: the “1) Growth (%) at 72 h” value in experiment [1] (P. falciparum, 2 μg/mL, 72 h) turned out to be 24.60%. Also, in experiment [2], the “2) Growth (%) at 120 h” value amounted to 4.30% and the “3) Fold change (72 h/120 h)” value worked out at 5.7.
Regarding `CC[C@H](C)[C@H]1O[C@]2(CC[C@@H]1C)C[C@@H]1C[C@@H](C/C=C(\C)[C@@H](O[C@H]3C[C@H](OC)[C@@H](O)[C@H](C)O3)[C@@H](C)/C=C/C=C3\CO[C@@H]4[C@H](O)C(C)=C[C@@H](C(=O)O1)[C@]34O)O2` [Ivermectin B1a monosaccharide], the Mean in experiment [1] came to 49.58.
Consider `CO[C@@H]1[C@@H](O[C@@H]2O[C@H](C)[C@@H](O[C@H]3C[C@@](C)(O)[C@@H](OC(=O)CC(C)C)[C@H](C)O3)[C@H](N(C)C)[C@H]2O)[C@@H](CC=O)C[C@@H](C)[C@@H](O)/C=C/C=C/C[C@@H](C)OC(=O)C[C@H]1O` [Leucomycin A1], for which the “1) Growth (%) at 72 h” value in experiment [1] (P. falciparum, 2 μg/mL, 72 h) is reported as 58.63%. In experiment [2], the “2) Growth (%) at 120 h” value was determined as 11.56% and the “3) Fold change (72 h/120 h)” value worked out at 5.1.
As for `CCCC(=O)O[C@H]1[C@H](C)O[C@@H](O[C@H]2[C@H](N(C)C)[C@@H](O)[C@H](O[C@H]3[C@@H](CC=O)C[C@@H](C)[C@@H](O)/C=C/C=C/C[C@@H](C)OC(=O)C[C@@H](O)[C@@H]3OC)O[C@@H]2C)C[C@@]1(C)O` [Leucomycin A5], the “1) Growth (%) at 72 h” value in experiment [1] (P. falciparum, 2 μg/mL, 72 h) was determined as 66.05%. Besides, in experiment [2], the “2) Growth (%) at 120 h” value is listed as 12.18% and the “3) Fold change (72 h/120 h)” value is given as 5.4.
With `CCCCCC(=O)O[C@H]1[C@H](C)O[C@@H](O[C@H]2[C@H](N(C)C)[C@@H](O)[C@H](O[C@H]3[C@@H](CC=O)C[C@@H](C)[C@@H](O)/C=C/C=C/C[C@@H](C)OC(=O)C[C@@H](O)[C@@H]3OC)O[C@@H]2C)C[C@@]1(C)O` [Leucomycin A13], the “1) Growth (%) at 72 h” value in experiment [1] (P. falciparum, 2 μg/mL, 72 h) amounted to 33.20%. Also, in experiment [2], the “2) Growth (%) at 120 h” value was 9.02% and the “3) Fold change (72 h/120 h)” value is on record as 3.7.
As for `CCC[C@@H]1C[C@@H](C(=O)N[C@@H]([C@H]2O[C@H](SC)[C@H](O)[C@@H](O)[C@H]2O)[C@@H](C)O)N(C)C1` [Lincomycin, reference compound], in experiment [1], the activity at 2 µg/mL worked out at 54.4%. In addition, in experiment [2], the “3) Fold change (72 h/120 h)” value was found to be 3.8 and the activity at 2 µg/mL was 14.1%.
In experiment [1] (setting [5]), `CC1=C[C@H]2[C@H](O)[C@H](O)CC[C@H]2[C@@](C)(C(O)=C2C(=O)CNC2=O)[C@@H]1CCC(C)C(O)/C(C)=C/CC(O)/C=C/C(C)C(O)/C=C/CC(O)/C(C)=C/CC(O)CC1CCCN1C(=N)N` (some centres unmarked) [Lydicamycin] gave a Mean of 36.70.
For `CC1=C[C@H]2C(=O)O[C@H]3C[C@@H](C/C=C(\C)C[C@@H](C)/C=C/C=C4\CO[C@H]([C@@H]1O)[C@@]42O)O[C@@]1(CC[C@H](C)[C@@H](C)O1)C3` [Milbemycin A3], the “1) Growth (%) at 72 h” value in experiment [1] (P. falciparum, 2 μg/mL, 72 h) turned out to be 24.47%. Also, in experiment [1] (setting [5]), the Mean was determined as 24.47. In addition, in experiment [2], the “2) Growth (%) at 120 h” value turned out to be 17.63% and the “3) Fold change (72 h/120 h)” value was found to be 1.4.
With `CC[C@H]1O[C@]2(CC[C@@H]1C)C[C@@H]1C[C@@H](C/C=C(\C)C[C@@H](C)/C=C/C=C3\CO[C@@H]4C(=NO)C(C)=C[C@@H](C(=O)O1)[C@]34O)O2` [Milbemycin A4 oxime], the “1) Growth (%) at 72 h” value in experiment [1] (P. falciparum, 2 μg/mL, 72 h) is reported as 22.48%. In experiment [1] (setting [5]), the Mean was determined as 22.48. In experiment [2], the “2) Growth (%) at 120 h” value turned out to be 12.31% and the “3) Fold change (72 h/120 h)” value is listed as 1.8.
On the same counts, the results for `CC1=C[C@H]2C(=O)O[C@H]3C[C@@H](C/C=C(\C)C[C@@H](C)/C=C/C=C4\CO[C@H]([C@@H]1O)[C@@]42O)O[C@]1(C3)C[C@H](O)[C@H](C)[C@@H](/C(C)=C/C(C)C)O1` [Nemadectin] are 21.98%, 21.98, 11.78% and 1.9.
On to `CC[C@H]1CCC[C@H](O)[C@@H](C)C(=O)C2=C[C@@H]3[C@@H](C=C(C)[C@@H]4C[C@@H](O[C@@H]5O[C@@H](C)[C@H](OC)[C@@H](OC)[C@H]5OC)C[C@@H]34)[C@@H]2CC(=O)O1` [Spinosyn D pseudoaglycone], for which the IC50 in experiment [1] (setting [3]) is more than 1 µM.
In the case of `C/C=C(/NC(=O)c1csc(-c2csc(-c3ccc4c(n3)-c3csc(n3)C(C(C)OC)NC(=O)c3csc(n3)C(C(C)(C)O)NC(=O)c3csc(n3)/C(=C\C)NC(=O)C(C(C)O)NC(=O)c3csc-4n3)n2)n1)C(=O)NCC(C)O` (centres unmarked) [Thiocillin II], the results for the IC50 in experiment [1] (setting [3]) and in experiment [1] (setting [6]) were 0.161 ± 0.038 µM and less than 0.2 µM, respectively.
In turn, Bischloroanthra-benzoxocinone gave a Mean in experiment [1] (setting [5]) of 31.15.
Regarding Ikarugamycin, the Mean in experiment [1] (setting [5]) came out at 48.31.
As for Thiocillin III, the results for the IC50 in experiment [1] (setting [3]) and in experiment [1] (setting [6]) were 0.11 ± 0.006 µM and less than 0.2 µM, respectively.
